These antisense oligonucleotides have a phosphorothioate backbone; sugars and methylation of C are not fully specified.

In one series the target is GNAS. The settings on record: ASO.
The next series addresses GNA13. The note with it: ASO.
Further: test concentration or dose not given here.

Regarding ACACACGGCGGATGTTCTCA, in the series with GNAS, the remaining target (mRNA or protein) (fraction of control) came out at 0.42.
On the same count and under the same terms, under ACACGGCGGATGTTCTCAGT stands 0.39; under ACGGCGGATGTTCTCAGTGT, 0.71.
The same measure, in the same setting: under ACTGAAAGTGAGAGGGAACT stands at least 1; under AGCGCAGGTGAAATGAGGGT, at least 1.
Sequence AGGTGAAATGAGGGTAGCAG returned a remaining target (mRNA or protein) (fraction of control) in the series with GNAS of at least 1.
Same read-out and setting: next, AGTGAGAGGGAACTTTTGTG: 0.41; ATATTTATTTCATTTGTTTC: 0.61; ATGTTCTCAGTGTCCACAGC: 0.58.
In the series with GNA13, ATGTTCTCCGTGTTGATA gave a remaining target (mRNA or protein) (fraction of control) of 0.67.
In turn, ATTTATTTCATTTGTTTCTT showed a remaining target (mRNA or protein) (fraction of control) with GNAS of at least 1.
Same read-out and setting: under ATTTCATTTGTTTCTTTTAT stands 0.76; under ATTTGGAACATCTAAGCAAG, 0.66; under ATTTGTTTGCTGCTGCTGTT, 0.81.
Take CAAATCTTGGCGATGAGT: in the series with GNA13, the remaining target (mRNA or protein) (fraction of control) amounted to 0.31.
Sequence CAATTTGCACCTTCTCCT yielded a remaining target (mRNA or protein) (fraction of control) with GNA13 of 0.29.
Still for that read-out and setting: next, CACACGGACAGCACGGAC: 0.77.
In turn, CACGGCGGATGTTCTCAGTG came in with a remaining target (mRNA or protein) (fraction of control) with GNAS of 0.44.
On to CACTTGAGGAAACAAGGA, for which the remaining target (mRNA or protein) (fraction of control) in the series with GNA13 is 0.38.
In turn, CAGCTTTCAGCCACAAAC registered a remaining target (mRNA or protein) (fraction of control) in the series with GNA13 of 0.99.
In the series with GNAS, CAGGTGAAATGAGGGTAGCA registered a remaining target (mRNA or protein) (fraction of control) of at least 1.
Sequence CATAAGCACCTGGTCAAA yielded a remaining target (mRNA or protein) (fraction of control) with GNA13 of 0.1.
Sequence CATAGGTCTTTTCCCGAG gave a remaining target (mRNA or protein) (fraction of control) in the series with GNA13 of 0.52.
CATCTGCTTCAGGAAGGT: the remaining target (mRNA or protein) (fraction of control) with GNA13 is 0.55.
The same measure, in the same setting: under CATCTTGCCGCCGCCGCC stands 0.99.
For the sequence CATTTGTTTCTTTTATTTCA, the remaining target (mRNA or protein) (fraction of control) with GNAS is 0.65.
CATTTTATTTGTTTGCTGCT came in with a remaining target (mRNA or protein) (fraction of control) with GNAS of 0.65.
Regarding CCCGTGGATGATCCGCAT, the remaining target (mRNA or protein) (fraction of control) with GNA13 is at least 1.
With CCGCCGCCTCGCCGCCTC, the remaining target (mRNA or protein) (fraction of control) with GNA13 amounted to 0.33.
Still for that read-out and setting: next, CCGCTGTCTGCCCATAAT: 0.08.
Same read-out and setting: next, CCTTGTTTCCACCATTCC: 0.07.
Same read-out and setting: under CGAGACAGGCATTTGTCG stands at least 1; under CGATTGGTCAGTCGATCT, at least 1.
In the series with GNAS, CGCAGGTGAAATGAGGGTAG had a remaining target (mRNA or protein) (fraction of control) of 0.35.
CGCCTCGCCGCCTCTCCG showed a remaining target (mRNA or protein) (fraction of control) with GNA13 of 0.75.
In the series with GNA13, CGCGCCCAGCAGCAGGAT returned a remaining target (mRNA or protein) (fraction of control) of 0.75.
The same measure, in the same setting: under CGGACCGCGACGGCAGGA stands 0.58.
Sequence CGGCGGATGTTCTCAGTGTC returned a remaining target (mRNA or protein) (fraction of control) with GNAS of 0.32.
As to CGGTCATAGGCATTCTGT, in the series with GNA13, the remaining target (mRNA or protein) (fraction of control) was 0.66.
Sequence CGTAGAATTAAGATTGTT gave a remaining target (mRNA or protein) (fraction of control) in the series with GNA13 of at least 1.
On the same count and under the same terms, under CGTTTGTTCCGGAAACAT stands 0.76.
The same measure, in the same setting: next, CTCCATGTTGTTGGTTTG: 0.46.
Sequence CTGAATGATGTCACGGCAGT displayed a remaining target (mRNA or protein) (fraction of control) in the series with GNAS of 0.63.
The same measure, in the same setting: under CTGCTGCTGTTTTATTTATT stands 0.63.
CTTGCGTTGCTGCTCGGC: the remaining target (mRNA or protein) (fraction of control) with GNA13 worked out at 0.36.
CTTTGGTTGCCTTCTCACTG displayed a remaining target (mRNA or protein) (fraction of control) with GNAS of 0.55.
Same read-out and setting: next, CTTTTATTTCATTTTATTTG: 0.97.
The sequence CTTTTCCCGAGACAGGCA yielded a remaining target (mRNA or protein) (fraction of control) with GNA13 of 0.08.
On the same count and under the same terms, next, GAAAACCCTTGTTTCCAC: 0.33; GAAATAGTCTTTGATGCT: 0.61.
As to GAATGATGTCACGGCAGTCG, the remaining target (mRNA or protein) (fraction of control) with GNAS was found to be 0.39.
GACAGGCATTTGTCGATC had a remaining target (mRNA or protein) (fraction of control) in the series with GNA13 of at least 1.
With GACCGCGACGGCAGGAAG, in the series with GNA13, the remaining target (mRNA or protein) (fraction of control) is at least 1.
With GAGCATCAACCAGCACCC, the remaining target (mRNA or protein) (fraction of control) with GNA13 came out at 0.11.
The sequence GATCTCCTTGGACTTGCG gave a remaining target (mRNA or protein) (fraction of control) with GNA13 of 0.33.
On to GATGTTCTCAGTGTCCACAG, for which the remaining target (mRNA or protein) (fraction of control) with GNAS stood at 0.45.
GCAAGCAGAATATCTTGT: the remaining target (mRNA or protein) (fraction of control) with GNA13 is 0.5.
Sequence GCAGGTGAAATGAGGGTAGC registered a remaining target (mRNA or protein) (fraction of control) with GNAS of at least 1.
As to GCCCGGGTATCAAACGAC, the remaining target (mRNA or protein) (fraction of control) with GNA13 is 0.26.
Same read-out and setting: under GCCGCCGCCGCCGCCTCG stands at least 1; under GCCTCGCCACTCGTCAGC, 0.5.
The sequence GCGCAGGTGAAATGAGGGTA displayed a remaining target (mRNA or protein) (fraction of control) in the series with GNAS of 0.9.
In turn, GCGCTGAATGATGTCACGGC displayed a remaining target (mRNA or protein) (fraction of control) in the series with GNAS of 0.38.
Take GCGCTGGTCGAAGTCCTG: the remaining target (mRNA or protein) (fraction of control) with GNA13 worked out at 0.7.
Still for that read-out and setting: next, GCTGAAAACCCGGTTATT: 0.65.
GCTGCTGCTGTTTTATTTAT yielded a remaining target (mRNA or protein) (fraction of control) with GNAS of 0.43.
Still for that read-out and setting: next, GCTGCTGTTTTATTTATTTT: 0.75.
Take GGATCCCCTTCAAATTCT: the remaining target (mRNA or protein) (fraction of control) in the series with GNA13 turned out to be 0.72.
GGGTTCCCTTCTTAGAGCAG yielded a remaining target (mRNA or protein) (fraction of control) with GNAS of 0.52.
Still for that read-out and setting: under GGGTTTCGCAAAATCACTCG stands 0.61; under GGTTCCCTTCTTAGAGCAGC, at least 1; under GGTTGCCTTCTCACTGTCTC, 0.58.
The same measure, in the same setting: under GGTTTCGCAAAATCACTCGG stands 0.41.
In the case of GTCGATCTCCTTGGACTT, the remaining target (mRNA or protein) (fraction of control) in the series with GNA13 was 0.65.
With GTGAAATGAGGGTAGCAGTA, the remaining target (mRNA or protein) (fraction of control) with GNAS is at least 1.
With GTGAGAGGGAACTTTTGTGG, the remaining target (mRNA or protein) (fraction of control) in the series with GNAS stood at 0.72.
For the sequence GTTGCCTTCTCACTGTCTCC, in the series with GNAS, the remaining target (mRNA or protein) (fraction of control) stood at 0.75.
GTTGTGATGGAATATAAT displayed a remaining target (mRNA or protein) (fraction of control) in the series with GNA13 of at least 1.
On the same count and under the same terms, next, GTTTCCTTTCTGATCTCT: 0.35.
GTTTCGCAAAATCACTCGGG returned a remaining target (mRNA or protein) (fraction of control) with GNAS of 0.5.
In the series with GNAS, GTTTCTTTTATTTCATTTTA yielded a remaining target (mRNA or protein) (fraction of control) of at least 1.
Same read-out and setting: next, GTTTGCTGCTGCTGTTTTAT: 0.53.
As for TAAGGGCTTCTGTTGCTG, the remaining target (mRNA or protein) (fraction of control) with GNA13 came to 0.55.
In the series with GNAS, TACTGAAAGTGAGAGGGAAC registered a remaining target (mRNA or protein) (fraction of control) of 0.65.
With TATCCAAGTTATCCAGGA, in the series with GNA13, the remaining target (mRNA or protein) (fraction of control) amounted to 0.48.
Same read-out and setting: under TATCCTTCACGTCGCGGA stands at least 1; under TATTGATGTCACACTGTC, 0.48.
In turn, TATTTATTTCATTTGTTTCT came in with a remaining target (mRNA or protein) (fraction of control) with GNAS of at least 1.
Same read-out and setting: next, TATTTCATTTGTTTATTTTA: at least 1.
The same measure, in the same setting: next, TATTTGTTTGCTGCTGCTGT: at least 1.
With TCACCAGCCGCTTCACAT, the remaining target (mRNA or protein) (fraction of control) with GNA13 worked out at 0.23.
Same read-out and setting: under TCACGTTGCTGTAGATGG stands at least 1.
In the series with GNAS, TCATTTGTTTCTTTTATTTC yielded a remaining target (mRNA or protein) (fraction of control) of 0.85.
The same measure, in the same setting: next, TCATTTTATTTGTTTGCTGC: 0.75.
Sequence TCGAAACATTCAAACCAA had a remaining target (mRNA or protein) (fraction of control) in the series with GNA13 of 0.42.
TCGAAGTCCTGCCCGTGG: the remaining target (mRNA or protein) (fraction of control) with GNA13 was at least 1.
Same read-out and setting: next, TCGCCCGCGCCCAGCAGC: 0.31; TCTGACCACCTACATCAA: 0.2.
For TCTGGTTCTCCAAGTTTA, the remaining target (mRNA or protein) (fraction of control) in the series with GNA13 was found to be 0.25.
On the same count and under the same terms, under TCTTATAGCAGGAAGATA stands at least 1.
TCTTTTATTTCATTTTATTT had a remaining target (mRNA or protein) (fraction of control) with GNAS of 0.84.
In the series with GNAS, TGAATGATGTCACGGCAGTC had a remaining target (mRNA or protein) (fraction of control) of 0.69.
In turn, TGAGAGGGAACTTTTGTGGC gave a remaining target (mRNA or protein) (fraction of control) with GNAS of 0.72.
For TGAGTTGTCTCCCCAGGG, the remaining target (mRNA or protein) (fraction of control) with GNA13 was at least 1.
For the sequence TGCCTTCTCACTGTCTCCAT, the remaining target (mRNA or protein) (fraction of control) with GNAS was 0.75.
Turning to TGCCTTTGGTGGGTCTTC, in the series with GNA13, the remaining target (mRNA or protein) (fraction of control) came out at 0.51.
TGCGCTGAATGATGTCACGG: the remaining target (mRNA or protein) (fraction of control) with GNAS turned out to be 0.41.
TGCTCGGCCTCGCCACTC had a remaining target (mRNA or protein) (fraction of control) in the series with GNA13 of 0.52.
In the series with GNAS, TGCTGCTGCTGTTTTATTTA had a remaining target (mRNA or protein) (fraction of control) of 0.62.
Same read-out and setting: under TGCTGCTGTTTTATTTATTT stands at least 1.
Same read-out and setting: next, TGGTTGCCTTCTCACTGTCT: 0.62.
In turn, TGTTCAGAGACTCTGTAA gave a remaining target (mRNA or protein) (fraction of control) with GNA13 of 0.47.
The sequence TGTTCTCAGTGTCCACAGCG yielded a remaining target (mRNA or protein) (fraction of control) with GNAS of 0.39.
On the same count and under the same terms, next, TGTTTCTTTTATTTCATTTT: at least 1.
Turning to TTGAGGTTGTCATGCAGA, the remaining target (mRNA or protein) (fraction of control) with GNA13 was 0.73.
In turn, TTGTACATCACTGTAGCA displayed a remaining target (mRNA or protein) (fraction of control) with GNA13 of 0.41.
TTGTTGGTTTGAGTTGTC displayed a remaining target (mRNA or protein) (fraction of control) with GNA13 of at least 1.

For the origin of these results see the OligoGym collection.
